Like-named read-outs stand apart in the source and are kept apart here.
Tests used:
[1] = test system: patients with advanced solid malignancy; settings: in vivo
Method: Belinostat was administered in escalating doses of 600, 800 and 1000 mg m^−2 per day as a 30-min i.v. infusion on days 1–5 q21. Carboplatin was administered as a 30-min i.v. infusion at area under the curve (AUC) 5 on day 3 q21 days, whereas paclitaxel was administered at 175 mg m^−2 i.v. over 3 h. Cytotoxics were given 2–3 h after the administration of belinostat–paclitaxel followed by carboplatin. […] Carboplatin was dosed in accordance with the Calvert formula using ethylenediaminetetraacetic acid clearance to estimate glomerular filtration rate (GFR) ([Calvert et al, 1989]) at the European Union sites and the Jelliffe formula at sites in the United States ([Jelliffe, 1973]). Prophylactic anti-emetic and hypersensivity prophylaxis for paclitaxel were administered as per local standards.
A DLT was defined as an absolute neutrophil count <0.5 × 10^9 l^−1 lasting for ⩾7 days, or absolute neutrophil count <0.5 × 10^9 l^−1 with sepsis; or platelet count <25 × 10^9 l^−1. In addition, any other drug-related non-haematological grade III or IV toxicity with the exceptions of alopecia, nausea and vomiting, diarrhoea, rash, arthralgias and myalgias was categorized as DLT.
Dose escalation was planned in a classical 3+3 design in up to five cohorts. In cohort 1A, belinostat was to be administered at 600 mg m^−2 together with carboplatin AUC 5; in cohort 1B, […] with paclitaxel 175 mg m^−2. In cohort 2, belinostat at 600 mg m^−2 was to be administered with both carboplatin AUC 5 and paclitaxel at 175 mg m^−2. In cohorts 3 and 4, belinostat was to be administered at 800 and 1000 mg m^−2, respectively, together with the same doses of BelCaP. Treatment cycles were to be repeated until disease progression, evidence of significant treatment-related toxicities, or withdrawal of consent. Up to two dose reductions were to be allowed of all three drugs.
Pre-treatment evaluation included history, physical examination, laboratory assessments, chest x-ray, electrocardiogram (ECG), urinalysis and tumour evaluation with computed tomography (CT) or magnetic resonance imaging (MRI). Laboratory assessments (complete blood count, clotting screen, urea, creatinine, electrolytes, liver function tests, uric acid, glucose and cholesterol) were performed pre-treatment and weekly thereafter as well as on day 4 of cycles 1 and 2 only. Electrocardiograms were performed before and within 1 h after treatment with belinostat in cycle 1 and on day 1 only of all subsequent cycles. Central ECG reading was carried out using a digital analysis method.
Toxicities were graded according to the National Cancer Institute Common Terminology Criteria for Adverse Events version 3.0. Efficacy was assessed by CT or MRI performed every two cycles using Response Evaluation Criteria in Solid Tumors (RECIST) ([Therasse et al, 2000]).

[2] = Belinostat plasma pharmacokinetics in patients (HPLC-MS/MS, non-compartmental); format: in vivo, human; settings: for Cl / Vss / AUC / AUC(0-inf) / Cmax / half-life: mean±s.d.; for AUC / AUC(0-inf) / Cmax / half-life: human, plasma, iv
Method: Belinostat and paclitaxel levels were determined in lithium-heparinised plasma using validated solid-phase extraction high performance liquid chromatograpgy (HPLC)-tandem mass spectrometric detection (MS/MS) methods (Covance, Indianapolis, IN, USA). […] Belinostat plasma concentrations were determined at Covance using a validated method involving solid-phase extraction, separation with acetic acid acetonitril gradient on reversed phase C18 silica and MS/MS using penta-deuterated belinostat as the internal standard. […] For all analytes the AUC was estimated from the start of infusion by the logarithmic-linear trapezoidal rule and extrapolated to infinity using the estimated value of the slope of the terminal logarithmic-linear disposition phase.

[3] = design: method as in Qian et al, 2006; settings: combined with paclitaxel, docetaxel and carboplatin, in vitro and in vivo; ref Qian et al, 2006; cited from earlier work
[4] = test system: advanced solid malignancy; assay: Anti-tumour activity by CT/MRI (RECIST) in phase I patients; format: in vivo, human; settings: for duration of response: confirmed PR
[5] = test system: class I and II recombinant HDAC isoforms; design: method as in Khan et al, 2008; settings: ref Khan et al, 2008; cited from earlier work
[6] = test system: solid and haematological tumours; settings: cited from earlier work; for dose-limiting toxicities: 2008
[7] = belinostat 600 mg m^−2 i.v., days 1 and 3, 12 patients
[8] = belinostat 800 mg m^−2 i.v., days 1 and 3, 4 patients
[9] = belinostat 1000 mg m^−2 i.v., day 1, 7 patients
[10] = belinostat 1000 mg m^−2 i.v., day 3, 7 patients
[11] = 600 mg, belinostat 600 mg m^−2 i.v., days 1 and 3, 12 patients
[12] = 800 mg, belinostat 800 mg m^−2 i.v., days 1 and 3, 4 patients
[13] = 1000 mg, belinostat 1000 mg m^−2 i.v., day 1, 7 patients
[14] = 1000 mg, belinostat 1000 mg m^−2 i.v., day 3, 7 patients
[15] = eight patients with best response s.d.

For `O=C(/C=C/c1cccc(S(=O)(=O)Nc2ccccc2)c1)NO` [belinostat], the “Alopecia grade 3, treatment related AE” value ([1]; human) was 0, the “Arthralgia grade 3, treatment related AE” value ([1]; human) was 0 and the “Flushing grade 3, treatment related AE” value ([1]; human) was 0. The “Nausea grade 3, treatment related AE” value ([1]; human) was 0, the “Neutropenia grade 4, treatment related AE” value ([1]; human) was 13% and the “maximal administered dose of belinostat” value ([1]; human) was 1000 mg m^−2 per day. For the same compound, the “recommended dose of belinostat” value ([1]; human, iv) was 1000 mg m^−2 per day, the cardiac toxicity [1] was “no cardiac toxicity” and the “grade IV non-haematological adverse events” value [1] was “no grade IV non-haematological adverse events”. The “accumulation with repeat dosing” value ([2]; 1000 mg m^−2 per day, day 3 pre-infusion) was “no accumulation”, the Cl [2, 7] was 69.7±15.2 l h^−1 m^−2 and the Vss [2, 7] was 34.9±6.4 l m^−2. For the same compound, the Cl [2, 8] was 73.7±14.1 l h^−1 m^−2, the Vss [2, 8] was 38.1±9.7 l m^−2 and the Cl [2, 9] was 41.1±22.2 l h^−1 m^−2. It also gave a Vss [2, 9] of 22.6±9.7 l m^−2, a Cl [2, 10] of 45.1±17.3 l h^−1 m^−2 and a Vss [2, 10] of 35.8±17.3 l m^−2. For the same compound, the “patients with pre-infusion plasma value on day 3 below the limit of quantitation” value ([2]; belinostat 1000 mg m^−2 per day, limit of quantitation 5 ng ml^−1) was “five of seven”, the “effect of concurrent administration on pharmacokinetics” value ([2]; belinostat with carboplatin and/or paclitaxel on day 3) was “unaltered” and the “dose proportionality of pharmacokinetics” value ([2]; dose range 600–1000 mg m^−2) was “dose proportional”. For the same compound, the AUC [2, 11] was 28.4 ± 7.1 µM·h, the AUC(0-inf) [2, 11] was 28.4 ± 7.1 µM·h and the Cmax [2, 11] was 58.5 ± 13.8 µM. It also gave a half-life [2, 11] of 1.7 ± 0.9 h, an AUC [2, 12] of 35.5 ± 8.7 µM·h and an AUC(0-inf) [2, 12] of 35.6 ± 8.7 µM·h. It also gave a Cmax [2, 12] of 70.8 ± 18.9 µM, a half-life [2, 12] of 1.7 ± 0.2 h and an AUC [2, 13] of 102 ± 58.2 µM·h. For the same compound, the AUC(0-inf) [2, 13] was 102 ± 58.3 µM·h, the Cmax [2, 13] was 128 ± 43.5 µM and the half-life [2, 13] was 1 ± 0.1 h. The AUC [2, 14] was 88.8 ± 63.9 µM·h, the AUC(0-inf) [2, 14] was 88.8 ± 63.9 µM·h and the Cmax [2, 14] was 135 ± 54.9 µM. The half-life [2, 14] was 2.7 ± 0.4 h, the combination effect [3] was “additive to synergistic” and the “patients with best response of s.d.” value ([4]; 14 patients evaluable) was “eight”. The “patients with stable disease lasting ⩾6 months” value ([4]; belinostat with carboplatin and/or paclitaxel) was “six and seven”, the “partial responses (number of patients)” value ([4]; belinostat with carboplatin and/or paclitaxel, 14 patients evaluable, RECIST) was “two” and the duration of response ([4]; patient with metastatic pancreatic cancer treated with belinostat and carboplatin) was 7 months. The duration of response ([4]; patient with metastatic rectal cancer treated with belinostat, carboplatin and paclitaxel) was 9 months, the “duration of s.d., median” value [4, 15] was 6.6 months and the “duration of s.d., range” value [4, 15] was 1–29 months. For the same compound, the CA-125 response ([4]; one patient, mixed mullerian tumour of ovarian origin, radiologically s.d. by RECIST) was “complete CA-125 response”, the “duration of s.d., range” value ([4]; seven patients with s.d. lasting ⩾6 months) was 6–29 months and the “response in patient with metastatic transitional cell cancer of the bladder” value ([4]; treated with belinostat and paclitaxel, otherwise rated s.d.) was “resolution of a bony metastatic deposit”. For the same compound, the “activity against HDAC isoforms” value [5] was “nanomolar activity”, the myelosuppression ([6]; single agent phase I studies, ref Steele et al, 2008, Gimsing et al) was “no significant myelosuppression” and the “maximum tolerated dose (MTD)” value ([6]; single agent, i.v., q21 days, ref Steele et al, 2008, Gimsing et al) was 1000 mg m^−2 per day. The dose-limiting toxicities ([6]; single agent, solid tumour study, ref Steele et al) was “fatigue, diarrhoea and atrial fibrillation” and the dose-limiting toxicities ([6]; single agent, study of haematological tumours, ref Gimsing et al) was “none were seen”.

Source: paper PMC2905291, “A phase I study of the safety and pharmacokinetics of the histone deacetylase inhibitor belinostat administered in combination with carboplatin and/or paclitaxel in patients with solid tumours” (British Journal of Cancer, 2010)
